# Results published in patent US20260234165A1, “MACROCYCLIC COMPOUNDS, PREPARATION METHOD THEREFOR, AND USE THEREOF” (GENFLEET THERAPEUTICS (SHANGHAI) INC., priority 2004, published 2026).
# pIC50: −log10 of the molar value. Read-outs that look alike come from different tables or passages of the source.
# What was measured:
# [1] = tested on: p-ERK in AsPC-1 cells (KRAS G12D mutation); test: Cell p-ERK assay (HTRF) in AsPC-1 cells; assay type: cell-based, human; settings: AsPC-1 cells, 3 h compound incubation, HTRF p-ERK T202/Y204, read-out: AsPC-1 p-ERK IC50
# Summary of the method: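 AsPC-1 (10000/well) or NCI-H441 (20000/well) cells were seeded overnight, then treated 3 h at 37° C. with 3.16-fold compound dilutions (0.1% DMSO final). Lysates were probed 4 h for phospho-ERK T202/Y204 by HTRF; inhibition versus DMSO and blank wells gave IC50 from four-parameter fits.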
# [2] = Pharmacokinetic study in rats; assay type: in vivo, Sprague-Dawley (SD) rats; settings: male SD rats; for clearance / CL: IV, dose 1 mg/kg; for AUC / Cmax: PO (intragastric), dose 10 mg/kg
# Excerpt: A total of 6 healthy adult male Sprague-Dawley (SD) rats were provided by Zhejiang Vital River Laboratory Animal Technology Co., Ltd. For each test compound, 6 healthy adult male SD rats were selected and randomly divided into 2 groups: an intravenous administration (IV) group and an intragastric administration (PO) group. The LC-MS/MS method was used to determine the drug concentrations in the plasma of rats at different time points after intravenous and intragastric administration of the test compounds. This experiment was intended to investigate the pharmacokinetic performance of the test compounds in rats and to evaluate the pharmacokinetic characteristics. Each drug used in the experiment was prepared from the test compound powder: An appropriate amount of test compound powder was weighed out, and appropriate amounts of DMSO, a 10% aqueous Solutol HS 15 solution, and a 6% aqueous HP-β-CD solution were sequentially added according to a volume ratio of 5:10:85. The mixture was vortexed and sonicated until clarification. The final concentration of the drug in the IV group was 0.5 mg/mL, and the final concentration of the drug in the PO group was 1 mg/mL; the concentrations could be adjusted according to actual needs. For the drug in the PO group of Z504, an appropriate amount of test compound powder was weighed out, and an appropriate amount of 0.5% MC+0.2% Tween 80 aqueous solution was added. The mixture was well mixed by vortexing to give a 1 mg/mL homogeneous suspension: the concentration could be adjusted according to actual needs.
# All experimental rats were fasted overnight, and food intake was resumed 4 h after administration. For the rats in the IV group, the administration volume was set at 2 mL/kg, with Z554 and Z915 administered at a dose of 0.5 mg/kg and the other compounds at a dose of 1 mg/kg. For the rats in the PO group, the administration volume was 10 mL/kg and the dose was 10 mg/kg. The administration amount was adjusted according to the body weight of the rats on the day of administration. In the experiment, blood samples were collected from the rats in the IV group at multiple time points (0.0833 h, 0.25 h, 0.5 h, 1 h, 2 h, 4 h, 7 h, and 24 h) after administration, while blood samples were collected from the PO group at 0.25 h, 0.5 h, 1 h, 2 h, 4 h, 7 h, and 24 h after administration, with approximately 100 μL collected each time via the orbital blood collection method.
# The blood samples were placed in centrifuge tubes containing EDTA-K2 and centrifuged at 8000 rpm for 4 min within 30 min to separate the supernatant plasma. The resulting plasma samples were stored at −20° C. for later use. For sample analysis, 20 μL of each of plasma samples and calibration standards was added to a 96-well plate, and 160 μL of acetonitrile containing 100 ng/mL tolbutamide was added. The samples were vortexed for 5 min for uniform mixing, and then centrifuged at 4000 rpm for 15 min. After the centrifugation was completed, 50 μL of supernatant was added to a 96-well plate containing 150 μL of deionized water. The plate was then sealed and shaken for uniform mixing. Sample analysis was performed by LC-MS/MS.
# The sampling volume could be adjusted according to actual needs, but the final concentration should be kept unchanged.
# [3] = Sprague-Dawley, rat, plasma, read-out: AUC
# [4] = Sprague-Dawley, rat, plasma, read-out: Cmax
SMILES,"pIC50 ([1]; Homo sapiens, ASPC1, 3 h)","clearance ([2]; Sprague-Dawley, rat, plasma) [mL/min/kg]","AUC [2, 3] [ng·h/mL]","Cmax [2, 4] [ng/mL]",CL [2] [mL/min/kg],AUC [2] [ng·h/mL],Cmax [2] [ng/mL],pIC50 [1]
"CCn1c(-c2cc(N3CCN4CC5(CC5)OC[C@@H]4C3)cnc2[C@H](C)OC)c2c3cc(ccc31)-c1csc(n1)C[C@H](NC(=O)[C@H]1[C@H](C)[C@@H]1C)C(=O)N1CCC[C@H](N1)C(=O)OCC1(CC1)C2 (atropisomer, axis not shown; (Ra)) [Compound Z13]",8.65,–,–,–,–,–,–,–
"CCn1c(-c2cc(C#C[C@@H]3COCCN3C)cnc2[C@H](C)OC)c2c3cc(ccc31)-c1csc(n1)C[C@H](NC(=O)[C@H]1[C@H](C)[C@@H]1C)C(=O)N1CCC[C@H](N1)C(=O)OCC(C)(C)C2 (atropisomer, axis not shown; (Ra)) [Compound Z672, (1r,2R,3S)—N-((6^3S,4S,Z)-1^1-ethyl-(Ra)-1^2-(2-((S)-1-methoxyethyl)-5-(((R)-4-methylmorpholin-3-yl)ethynyl)pyridin-3-yl)-10,10-dimethyl-5,7-dioxo-6^1,6^2,6^3,6^4,6^5,6^6hexahydro-1^1H-8-oxa-2(4,2)-thiazola-1(5,3)-indola-6(1,3)-pyridazinacycloundecaphane-4-yl)-2,3-dimethylcyclopropane-1-carboxamide]",9.41,11.8,2940,738,–,–,–,–
"CO[C@@H](C)c1ncc(C#CCN2CCCOCC2)cc1-c1c2c3cc(ccc3n1CC(F)(F)F)-c1csc(n1)C[C@H](NC(=O)[C@H]1[C@H](C)[C@@H]1C)C(=O)N1CCC[C@H](N1)C(=O)OCC(C)(C)C2 (atropisomer, axis not shown; (Ra)) [Compound Z700, N-((6^3S,4S,Z)-1^1-(2,2,2-trifluoroethyl)-(Ra)-1^2-(2-((S)-1-methoxyethyl)-(5-(3-(1,4-oxazepan-4-yl)prop-1-yn-1-yl))-pyridin-3-yl)-10,10-dimethyl-5,7-dioxo-6^1,6^2,6^3,6^4,6^5,6^6-hexahydro-1^1H-8-oxa-2(4,2)-thiazola-1(5,3)-indola-6(1,3)-pyridazinacycloundecaphane-4-yl)-2,3-dimethylcyclopropane-1-carboxamide]",–,–,–,–,7.66,3259,681,9.80
"CCn1c(-c2cc(C#CCN3C4CCC3COC4)cnc2[C@H](C)OC)c2c3cc(ccc31)-c1csc(n1)C[C@H](NC(=O)[C@H]1[C@H](C)[C@@H]1C)C(=O)N1CCC[C@H](N1)C(=O)OCC(C)(C)C2 (atropisomer, axis not shown; (Ra)) [Compound Z711, (1r,2R,3S)—N-((6^3S,4S,Z)—(Ra)-1^2-(5-(3-(3-oxa-8-azabicyclo[3.2.1]octan-8-yl)prop-1-yn-1-yl)-2-((S)-1-methoxyethyl)pyridin-3-yl)-1^1-ethyl-10,10-dimethyl-5,7-dioxo-6^1,6^2,6^3,6^4,6^5,6^6-hexahydro-1^1H-8-oxa-2(4,2)-thiazola-1(5,3)-indola-6(1,3)-pyridazinacycloundecaphane-4-yl)-2,3-dimethylcyclopropane-1-carboxamide]",–,–,–,–,3.82,8876,1867,9.49
"CCn1c(-c2cc(C#CCN3CCC(C(F)(F)F)CC3)cnc2[C@H](C)OC)c2c3cc(ccc31)-c1csc(n1)C[C@H](NC(=O)[C@H]1[C@H](C)[C@@H]1C)C(=O)N1CCC[C@H](N1)C(=O)OCC(C)(C)C2 (atropisomer, axis not shown; (Ra)) [Compound Z778]",8.82,5.31,4020,702,–,–,–,–
"CCn1c(-c2cc(C#CCN(C)CCOC)cnc2[C@H](C)OC)c2c3cc(ccc31)-c1csc(n1)C[C@H](NC(=O)[C@H]1[C@H](C)[C@@H]1C)C(=O)N1CCC[C@H](N1)C(=O)OCC(C)(C)C2 (atropisomer, axis not shown; (Ra)) [Compound Z788]",–,–,–,–,3.58,8529,2110,9.42
"CCn1c(-c2cc(C#CCN3CCN(C)C(=O)C3)cnc2[C@H](C)OC)c2c3cc(ccc31)-c1csc(n1)C[C@H](NC(=O)[C@H]1[C@H](C)[C@@H]1C)C(=O)N1CCC[C@H](N1)C(=O)OCC(C)(C)C2 (atropisomer, axis not shown; (Ra)) [Compound Z793]",9.72,3.16,5920,2040,–,–,–,–
"CCn1c(-c2cc(C#CCN3CCCN(C)CC3)cnc2[C@H](C)OC)c2c3cc(ccc31)-c1csc(n1)C[C@H](NC(=O)[C@H]1[C@H](C)[C@@H]1C)C(=O)N1CCC[C@H](N1)C(=O)OCC(C)(C)C2 (atropisomer, axis not shown; (Ra)) [Compound Z802, (1r,2R,3S)—N-((6^3S,4S,Z)-1^2-(5-(3-(4-methyl-1,4-diaza-1-yl)prop-1-yn-1-yl)-(Ra)-2-((S)-1-methoxyethyl)pyridin-3-yl)-1^1-ethyl-10,10-dimethyl-5,7-dioxo-6^1,6^2,6^3,6^4,6^5,6^6-hexahydro-1^1H-8-oxa-2(4,2)-thiazola-1(5,3)-indola-6(1,3)-pyridazinacycloundecaphane-4-yl)-2,3-dimethylcyclopropane-1-carboxamide]",9.70,–,–,–,–,–,–,–
"CCn1c(-c2cc(C#CCN3CCOC[C@H]3C)cnc2[C@H](C)OC)c2c3cc(ccc31)-c1csc(n1)C[C@H](NC(=O)[C@H]1[C@H](C)[C@@H]1C)C(=O)N1CCCC(N1)C(=O)OCC(C)(C)C2 (atropisomer, axis not shown; (Ra)) [Compound Z813]",–,–,–,–,14.9,1643,401,10.10
"CCn1c(-c2cc(C#CCN3CCS(=O)(=O)CC3)cnc2[C@H](C)OC)c2c3cc(ccc31)-c1csc(n1)C[C@H](NC(=O)[C@H]1[C@H](C)[C@@H]1C)C(=O)N1CCC[C@H](N1)C(=O)OCC(C)(C)C2 (atropisomer, axis not shown; (Ra)) [Compound Z838, (1r,2R,3S)—N-((6^3S,4S,Z)—(Ra)-1^2-(5-(3-(1,1-dioxidothiomorpholino)prop-1-yn-1-yl)-2-((S)-1-methoxyethyl)pyridin-3-yl)-1^1-ethyl-10,10-dimethyl-5,7-dioxo-6^1,6^2,6^3,6^4,6^5,6^6-hexahydro-1^1H-8-oxa-2(4,2)-thiazola-1(5,3)-indola-6(1,3)-pyridazinacycloundecaphane-4-yl)-2,3-dimethylcyclopropane-1-carboxamide]",10.10,2.51,3900,1400,–,–,–,–
"CCn1c(-c2cc(N3CCN(CCS(C)(=O)=O)CC3)cnc2[C@H](C)OC)c2c3cc(ccc31)-c1csc(n1)C[C@H](NC(=O)[C@H]1[C@H](C)[C@@H]1C)C(=O)N1CCC[C@H](N1)C(=O)OCC1(CC1)C2 (single isomer, unassigned) [Compound Z367]",8.14,–,–,–,–,–,–,–
"CCO[C@@H](C)c1ncc(N2CCN(CCS(C)(=O)=O)CC2)cc1-c1c2c3cc(ccc3n1CC)-c1csc(n1)C[C@H](NC(=O)[C@H]1[C@H](C)[C@@H]1C)C(=O)N1CCC[C@H](N1)C(=O)OCC1(CC1)C2 (single isomer, unassigned) [Compound Z378-1]",7.97,–,–,–,–,–,–,–
